pIC50: −log10 of the molar value.

Experimental findings from ChEMBL document CHEMBL1149255, “An in silico approach to discovering novel inhibitors of human sirtuin type 2” (J Med Chem, 2004) are described below.

For the test, the target named is T1, NAD-dependent protein deacetylase sirtuin-2 (Homo sapiens, UniProt Q8IXJ6).
T1 sequence (Q8IXJ6 whole entry): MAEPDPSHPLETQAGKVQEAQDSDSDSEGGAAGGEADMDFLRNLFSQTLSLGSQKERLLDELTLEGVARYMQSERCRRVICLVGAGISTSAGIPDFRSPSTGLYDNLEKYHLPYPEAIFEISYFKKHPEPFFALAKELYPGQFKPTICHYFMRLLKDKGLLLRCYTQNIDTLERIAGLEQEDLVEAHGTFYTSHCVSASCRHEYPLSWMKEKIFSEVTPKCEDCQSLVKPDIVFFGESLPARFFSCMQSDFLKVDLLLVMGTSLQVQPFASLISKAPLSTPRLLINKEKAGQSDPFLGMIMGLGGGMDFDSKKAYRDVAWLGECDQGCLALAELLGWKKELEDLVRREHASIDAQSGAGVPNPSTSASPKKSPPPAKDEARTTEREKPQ
Description: Inhibition of human recombinant GST-tagged SIRT2 by histone deacetylase assay.
Take `Cc1ncc(CSc2ccccc2/N=C/c2cc(Cl)cc(Cl)c2O)c(CO)c1O`: the pIC50 (usually the IC50 on a negative log10 scale, so that one unit is a factor of ten) was 4.13.

For the compound `Oc1ccccc1/C=N/c1ccc(OCCCCOc2ccc(/N=C/c3ccccc3O)cc2)cc1`, the negative-log IC50 (pIC50) was less than 3.00.

Consider `O=C(O)/C=C/C(=O)Nc1cccc(NC(=O)c2ccccc2O)c1`, for which the pIC50 was less than 3.00.

`Oc1ccccc1/C=N/c1ccc(OCCCOc2ccc(/N=C/c3ccccc3O)cc2)cc1`: the pIC50 is less than 3.00.

Take `O=C(O)CCCCOc1ccc2oc3ccccc3c(=O)c2c1`: the pIC50 was less than 3.00.

Consider `O=C(Nc1ccc(COc2ccccc2)cc1)Nc1cccc(C(=O)O)c1`, for which the pIC50 was less than 3.52.

As to `CC(C)(C)OC(=O)NC(Cc1ccccc1)C(=O)OCc1ccc(CC(=O)O)cc1` (stereo not given), the pIC50 is less than 3.00.

Regarding `COc1cc(NC(=O)c2ccccc2)c(C)cc1NC(=O)CC(CC(=O)O)c1ccccc1` (stereo not given), the pIC50 was less than 3.00.

`CN(CCO)c1ccc(C(=O)c2ccc(N(C)CCO)cc2)cc1`: the pIC50 was less than 3.00.

`Oc1ccc(/C=N/c2ccc(Cc3ccc(/N=C/c4ccc(O)c(O)c4)cc3)cc2)cc1O`: the pIC50 was less than 3.00.

Take `O=C(O)CSCC(=O)N1CCN(c2cc(C(F)(F)F)nc3ccccc23)CC1`: the pIC50 was less than 3.00.

As to `O=c1cc(CSc2n[nH]c(=O)n2C2Cc3ccccc3C2)c2ccc(O)cc2o1`, the pIC50 was less than 3.52.

Turning to `O=C1c2ccccc2C(=O)c2c(NCCc3ccc(O)cc3)ccc(NCCc3ccc(O)cc3)c21`, the pIC50 is 4.25.

With `Oc1ccc(CCc2nnc(S)n2-c2ccc(Cl)cc2)cc1`, the pIC50 is less than 3.52.

Regarding `O=C1c2cccc3c(SCCO)ccc(c23)C(=O)N1CCc1ccccn1`, the pIC50 was less than 3.00.
